# Entries after “also recorded” stand apart in the source; their conditions may differ.
# Experiments:
# [1] = system: CFPAC-1 pancreatic cell line; assay: Cell proliferation and cytotoxicity assay (MTS or crystal violet); format: cell-based, human; settings: CFPAC-1, 72 hours; prodrug tested as nanoparticles
# Method: (§1) Cell proliferation and cytotoxicity assays were performed in different cell lines by MTS (3-(4,5-dimethylthiazol-2-yl)-5-(3-carboxymethoxyphenyl)-2-(4-sulfophenyl)-2H-tetrazolium) assay. Cells were treated with free drug or prodrug nanoparticles, and in different concentrations in medium supplemented with 10% FBS and incubated for 72 hours.
# The cytotoxicity of CP-prodrug nanoparticles made from sole CP-amphiphiles was evaluated in comparison to native CP in a CFPAC-1 pancreatic cell line.
# (§2) The cell lines were exposed to media with varying concentrations of the treatments (100-0.2 μM) and incubated for 72 hours. Cell viability was determined using the MTS assay or crystal violate assay and was conducted in triplicate to derive the IC50 values.
# [2] = system: MCF7 cell line; assay: as above; format: cell-based; settings: MCF7, 72 hours; prodrug tested as nanoparticles
# Method: as §1, §2
# [3] = system: MIAPACA-2 (human pancreatic cancer) cell-derived xenograft; assay: In vivo tumour inhibition, resistant MIAPACA-2 xenograft (tumour volume, body weight, kidney histopathology); design: species or system NOD-SCID mice; settings: for histopathology of the kidney: 0.75 mg/Kg CP or equivalent, H & E sections
# Excerpt: Subcutaneous xenografts were established by implanting 2-3×10^6 cells from cultures of CFPAC-1 or MIAPACA-2 human pancreatic cancer cell lines. Six-week-old male Nonbobese diabetic/severe combined immunodeficient (NOD/SCID) or nonobese diabetic/severe combined immunodeficient-gamma (NSG) mice were obtained from Animal Research Centre, Perth, Australia. These mice were acclimatised for one week in the Kearns Facility, Kolling Institute of Medical Research, the University of Sydney, following standard animal regulation and strict health controls allowing transfer between institutions. Animal care and housing was undertaken in accordance with institutional guidelines of Northern Sydney Local Health District (NSLHD) Animal Care & Ethics Committee (ACEC) (Protocol number 1011-015A).
# Tumour growth was measured at least twice a week. When tumours were ˜40-100 mm3, the treatments were administered two times weekly by intraperitoneal injection (IP.) for control and gemcitabine alone groups, and intravenously (IV.) injection for nanoparticles groups for 4 weeks. At 30 days each experiment organs and tumours were harvested for analysis.
# Tissue samples were fixed in 10% phosphate buffered formalin and embedded in paraffin. Formalin-fixed, paraffin embedded sections were cut 4-μm thick sections and stained with Mayer's hematoxylin and eosin (H & E). For immunohistochemistry, sections were incubated with the specific antibodies then using the Dako Envision+System-HRP labelled polymer detection kit (DaKo) according to manufacturers' protocol and counterstained with Mayer's hematoxylin and Scott's bluing solution. After mounting, sections were observed under a light microscope (ECLIPSE 80i; Nikon,
# The evaluation of anticancer drugs in vivo is essential as it provides insight into the expected clinical outcomes of a drug. An in vivo evaluation of the anti-cancer efficacy of the CP-prodrug nanoparticles vs. CP was conducted on a resistant MIAPACA-2 (human pancreatic cancer) cell-derived xenograft in NOD-SCID mice. Five mice per group were used in the study and all treatments were administered via an IV injection twice a week for four weeks. The amount of CP administered in the free CP group was 0.75 mg/kg, where the nanoparticles made from CP-bis (suc-PEG3-Oleoyl) and stabilised with 30% PEG4K-oleoyl (FIG. 7b), contained 0.75 mg/kg of equivalent CP.
# [4] = system: CFPAC-1 (human pancreatic cancer) cell line-derived xenograft; assay: In vivo tumour inhibition by dual prodrug nanoparticles, CFPAC-1 xenograft; design: species or system NOD-SCID gamma mouse (NSG); settings: twice a week for 4 weeks; NPs IV with 4.5 mg/Kg Gem (dual: + 1 mg/Kg CP) equivalent; Gemcitabine 100 mg/Kg IP
# Method: In another study a dual drug chemotherapeutic prodrug nanoparticle was employed to treat a CFPAC-1 (human pancreatic cancer) cell line-derived xenograft in NOD-SCID gamma mouse (NSG) over 28 days. […] The control groups were injected with the commercially available free Gemcitabine at 100 mg/Kg and PBS (vehicle control). Gemcitabine group were administered by intraperitoneal (IP) injection due to high toxicity of IV injection. 24 mice were used in this study, treating 6 mice/group.
# [5] = system: CACO2 cell line; assay: Cell proliferation and cytotoxicity assay (MTS or crystal violet); format: cell-based; settings: CACO2, 72 hours; prodrug tested as nanoparticles
# Method: as §1, §2
# [6] = Reduction kinetics of Pt (IV) prodrug nanoparticles with ascorbic acid (LC-MS); format: in vitro ADME; settings: prodrug nanoparticles 0.1 mM, 37° C.
# Method: The reducing agent was applied at concentrations corresponding to those found in the living cells' environment, e.g. 1 mM ascorbic acid or 2 mM glutathione (GSH).
# Dispersed nanoparticles of Pt (IV) prodrug amphiphiles were mixed with GSH, ascorbic acid or their combination. The ratios of the reducing agents to platinum prodrugs were 10:1 or 50:1 for ascorbic acid and 20:1 for GSH. The reduction kinetics was analysed by LC-MS via monitoring the peaks related to each prodrug amphiphile. The prodrugs were detected by negative ions optimised for each platinum amphiphile. The reduction kinetics was plotted as the percentage of the area under the peak of Pt (IV)-prodrug compared to the peak before the addition of the reducing agent against the time of incubation. At each time point 10 μl of a sample withdrawn from the reaction solution was injected directly into a Phenomenex C8 150 mm×2 mm 5 μm Luna column (Phenomenex, Australia). A 100% Methanol solution was used as the mobile phase with a flow rate of 0.5 ml/min for 8 minutes. The sample after the column separation was eluted to the ESI source. […] The samples were well maintained at a temperature of 37° C. during the entire measurement by incubation in the temperature-controlled auto-sampler. Data was acquired and processed with Xcalibur Quan chromatography software.
# [7] = Mesophase behaviour by polarized optical microscopy (POM); format: physicochemical; settings: 25° C. and 37° C.
# Method: Polarized Optical Microscopy (POM): Samples used for Polarized Optical Microscopy (POM) were prepared by placing a small amount of prodrug amphiphile on a microscope slide and covered with a cover slip. Water was placed on the edges of the cover slip and allowed to flow into the sample by capillary action. The microscope slide was placed in a Linkam PE94 hot stage (Linkam Scientific Instruments Ltd. Surrey, England) and heated at 3° C./min between room temperature and 50° C. […] Images were captured with a Nikon DS-Ri-1 camera. All images were taken at 100× magnification.
# The formation of lyotropic mesophases is based on the interaction of the prodrug amphiphile with water. Polarized optical microscopy was used to study the liquid crystalline or crystalline structures of the prodrug amphiphiles. This method was used as a preliminary and qualitative investigation to observe the morphological changes of the amphiphile as well as to predict the structural changes of the mesophases which may form upon hydration with water. For each prodrug amphiphile, a small amount of the neat and dry sample was placed on a microscope slide and covered with a cover slip. Water was placed on the edges of the cover slip to allow to flow into the sample by capillary action. Images were captured at 25° C. before and after the addition of water and at 37° C. after exposure to water. 37° C. was selected due to its physiological relevance. […]
# [8] = 0.75 mg/kg CP or equivalent, IV twice a week for four weeks
Molecule,IC50 [1] [µM],IC50 [2] [µM],histopathology of the kidney ([3]; listed as CP),histopathology of the kidney ([3]; listed as CP drug),"average increase of body weight at the conclusion of the experiment [3, 8] [%]","tumour growth inhibition (in words) [3, 8]",tumour growth inhibition (in words) [4],IC50 [5] [µM],reduction rate at 5 mM versus 1 mM ascorbic acid [6],POM observation on exposure to water [7]
"N.N.[Cl][Pt][Cl] [Cisplatin, Cis-diamminedichloroplatinum (II)]",3.6,11.5,"sever pathological changes in the form of acute tubular necrosis, haemorrhage into many of the glomeruli and swelling of the capillaries",acute tubular necrosis,14,"growth inhibition to control PBS group, but less than group treated with nanoparticle",–,–,–,–
Nc1ccn([C@@H]2O[C@H](CO)[C@@H](O)C2(F)F)c(=O)n1 [Gemcitabine],–,–,–,–,–,–,significantly reduced the tumour volume; also recorded: reduced the size of tumour significantly better than other groups,–,–,–
"cis,cis,trans-(PtC12 (succinoyl-triethyleneglycoyl-oleoyl)2) [CP-bis(suc-PEG3-oleoyl)]",5.1,28.2,–,–,–,–,–,49,"slightly greater than 1 mM up to 4 h, however longer incubation time up to 7 h showed similar reduced prodrug at both concentrations",lamellar and emulsified bands (L2 or L3) mesophases
